These results are taken from patent US7947697B1, “8-(3-pentylamino)-2-methyl-3-(2-chloro-4-methoxyphenyl)-6,7-dihydro-5H-cyclopenta[d] pyrazolo[1,5-a]pyrimidine methanesulfonate as a CRF antagonist” (Ono Pharmaceutical Co., Ltd., priority 2003, dated 2011).

SMILES strings stand for the structures. pIC50: −log10 of the molar value. Entries after “also recorded” stand apart in the source; their conditions may differ.

The pIC50 is the negative decadic logarithm of the IC50, by convention in mol/L.

Data set [1] in a line: Thermal stability by differential scanning calorimetry (DSC). The format is physicochemical. As to conditions: for thermal stability: DSC chart / heat. An excerpt:
On the other hand, DSC chart of 8-(3-pentylamino)-2-methyl-3-(2-chloro-4-methoxyphenyl)-6,7-dihydro-5H-cyclopenta[d]pyrazolo[1,5-a]pyrimidine hydrochloride described in WO 02/053565 is shown in FIG. 2.
It was very surprising that the difference of the salt influenced heat stability like this greatly, and it was not easily expected.
(3) Differential Scanning Calorimeter (DSC)

Data set [2] can be described thus: Stability of the crystal for humidity and light. The data set is classed as physicochemical.
The next data set in a line: Solubility. The data set is classed as physicochemical.
Data set [3] addresses T1, human CRF1 receptor (Homo sapiens, UniProt P34998).
T1 construct: expressed in transfected cells; F-12 medium fits
T1 sequence (P34998 24-415): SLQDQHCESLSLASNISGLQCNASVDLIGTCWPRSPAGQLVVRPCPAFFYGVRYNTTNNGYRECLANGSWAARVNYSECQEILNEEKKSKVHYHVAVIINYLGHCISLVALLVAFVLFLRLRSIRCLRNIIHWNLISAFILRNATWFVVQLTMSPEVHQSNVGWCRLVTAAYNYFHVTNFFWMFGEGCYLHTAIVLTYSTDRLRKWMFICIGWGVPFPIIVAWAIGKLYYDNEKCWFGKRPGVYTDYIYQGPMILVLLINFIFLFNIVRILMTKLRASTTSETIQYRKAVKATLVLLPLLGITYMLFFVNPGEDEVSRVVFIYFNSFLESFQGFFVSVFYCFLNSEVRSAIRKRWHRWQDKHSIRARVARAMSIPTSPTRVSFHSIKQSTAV
Put plainly: Binding assay ([125I] h/r CRF, cell membrane fraction). As to conditions: membrane fraction of CHO-K1 cells expressing human CRF1 receptor; [125I] h/r CRF 0.25 nM; 2 hours, room temperature; read-out: affinity on CRF1 receptor (IC50). Here is the method: Cell Membrane Preparation
After a cell line expressing a human CRF1 receptor (expressed cell line: CHO-K1 cells) was cultured to reach confluence, the cells were harvested with a scraper. Harvested cells were washed twice with PBS before being suspended in a binding assay buffer (Tris-HCl (50 mM, pH 7.0), EDTA (2 mM, pH 8.0), and MgCl2 (10 mM)) cooled by ice. Suspended cells were homogenized with a Downs-type homogenizer and subjected to centrifugation at 10,000 g to collect the membrane fraction. The harvested cell membrane fraction was re-suspended with a small quantity of the binding assay buffer, and further diluted with said buffer to 1 mg/mL. The membrane fraction thus obtained was used for binding assay.
Fifty μL of [^125I] h/r CRF prepared to 0.5 nM with binding assay buffer was added to siliconized 1.5 mL tubes. Each of 1 μL of compounds diluted in appropriate multiples, DMSO (for total binding use) and h/r CRF solution (100 μM, for the non-specific binding use) was added to the tubes. Samples of 50 μL each of the membrane fraction preparation were added to the tubes to initiate the reaction (final concentration of [^125I] h/r CRF: 0.25 nM), then the mixtures were incubated for 2 hours at room temperature. […] Radioactivity values of the respective tubes were measured with a γ-counter. […]

In data set [4] the target is T1, human CRF1 receptor. Description: Receptor antagonistic activity (cyclic AMP assay). As to conditions: cells expressing human CRF1 receptor; human/rat CRF-stimulated intracellular cyclic AMP; read-out: antagonist activity on CRF receptor (IC50). The data set is classed as cell-based. The protocol:
Receptor Antagonistic Activity (Cyclic AMP Assay):
A cell line expressing a human CRF1 receptor was cultured using 10% bovine embryo serum and 1% F-12 nutrient mixture containing antibiotics and antifungal under 37° C., 5% carbonic anhydride, 95% air. On the day before a measurement of cyclic AMP, the cell seed to 96-well plate to be 1×10^4 cell/well. On the measurement day, the cell was washed twice with F-12 nutrient mixture, and F-12 nutrient mixture/1 mM 3-isobutyl-1-methylxanthin (assay medium) (178 μL) was added to each well. After they were incubated for 10 minutes at 37° C., each of various concentrated solutions of the test compound (2 μL) was added, or DMSO (2 μL) was added to CRF group and blank group. After they were incubated for 15 minutes at 37° C., 10 nM assay medium containing human/rat CRF (20 μL) was added to the test compound group and CRF group. To the blank group, an assay medium containing 0.00001% acetic acid (20 μL) was added. Furthermore, they were incubated for 15 minutes at 37° C. […] The cumulative dosage of intracellular cyclic AMP was measured by Biotrak enzyme immunoassay system (Amersham Biosciences). […] The IC50 values calculated by nonlinear regression analysis with logarithm concentrate of the compound as the autonomous variable and cyclic AMP cumulative dosage as an induced variable

With `CCC(CC)Nc1c2c(nc3c(-c4ccc(OC)cc4Cl)c(C)nn13)CCC2.Cl` [the hydrochloride compound, 8-(3-pentylamino)-2-methyl-3-(2-chloro-4-methoxyphenyl)-6,7-dihydro-5H-cyclopenta[d]pyrazolo[1,5-a]pyrimidine hydrochloride, reference compound], the thermal stability entry was “unstable compound to heat” in data set [1] (hydrochloride) and “poor” in data set [1] (listed as 8-(3-pentylamino)-2-methyl-3-(2-chloro-4-methoxyphenyl)-6,7-dihydro-5H-cyclopent, hydrochloride). For the same compound, in data set [1] (DSC chart FIG. 2, then changed gradually after over 50° C.), the “temperature at which the DSC curve changed significantly” value is roughly 40 °C.
With `CC1(C)C2CCC1(CS(=O)(=O)O)C(=O)C2.CCC(CC)Nc1c2c(nc3c(-c4ccc(OC)cc4Cl)c(C)nn13)CCC2` [camphorsulfonate (D, L, or DL)], the thermal stability result in data set [1] is “superior in thermal stability”.
With `CCC(CC)Nc1c2c(nc3c(-c4ccc(OC)cc4Cl)c(C)nn13)CCC2` [compound (1), 8-(3-pentylamino)-2-methyl-3-(2-chloro-4-methoxyphenyl)-6,7-dihydro-5H-cyclopenta[d]pyrazolo[1,5-a]pyrimidine methanesulfonate], in data set [2], the stability for humidity entry is on record as “steady”. The stability for light result in data set [2] is recorded as “steady”. Besides, the solubility result in “Solubility” is given as “remarkably superior”. Also, the pIC50 at human CRF1 receptor [3] and on human CRF1 receptor [4] was greater than 6.00 in each case. Further, in “Toxicity”, the toxicity result is “very low”. For the same compound, the disposition entry in the data set “Disposition” was “remarkably superior”. Besides, the thermal stability result in data set [1] (listed as the methanesulfonate compound, methanesulfonate) is “superior thermal stability”; in data set [1] (methanesulfonate) it was “steady; also recorded: superior in thermal stability”.
For `CCC(CC)Nc1c2c(nc3c(-c4ccc(OC)cc4Cl)c(C)nn13)CCC2.Cc1ccc(S(=O)(=O)O)cc1` [tosylate, 8-(3-pentylamino)-2-methyl-3-(2-chloro-4-methoxyphenyl)-6,7-dihydro-5H-cyclopenta[d]pyrazolo[1,5-a]pyrimidine tosylate], the thermal stability result in data set [1] was “superior in thermal stability”.
Still for that read-out and setting: the same measure for `C1=Cc2cccc(OC[C@H]3CNCCO3)c2C1.O=S(=O)(O)c1ccccc1` [benzenesulfonate]: “superior in thermal stability”.
